From patent US7521459B2, “Method for treating damaged skin” (Metabeauty Inc., priority 2003, dated 2009) come the findings set out here.

The subject of one series is Patient A skin. In words: Daily topical application of a 5% imiquimod composition to Patient A skin, visual inspection. The following applies: after 8 weeks of daily application. The format is in vivo, human. An excerpt:
In a first example of a method of the invention, a 5% imiquimod composition is applied to Patient A skin.
(§1) One skilled in the art is familiar with many methods and techniques for evaluating or monitoring changes in the skin. […] For example, changes in pigmentation, texture, and the presence of wrinkles or fine lines can all be monitored through visual assessment. In addition, a mexameter can be used to measure skin pigment, a tewameter and/or evaporometer can be used to measure water content, a laser doppler device can measure blood flow, and a visioscan or optical profilometer can measure surface texture, wrinkles, and/or roughness. Any one or any combination of these methods can be used, in particular, to measure, monitor, or detect changes in fine wrinkles, mottled hyperpigmentation, tactile roughness, lentigines, course or deep wrinkles, telangiectasia, skin laxity, keratinocytic atypia, melanocytic atypia, and/or dermal elastosis. Thus, the methods and composition of the invention can be used to treat and/or to evaluate possible treatment compositions where any one of these diseases or conditions are present or may be present.

For series [1], the system named is entire face (precancerous lesions and normal, photodamaged skin). The series can be described thus: Daily application of a pea size aliquot of 5% imiquimod to the entire face of Patient B. In kind it is in vivo, human. The following applies: pea size aliquot of 5% imiquimod every day to the entire face. The procedure:
as §1, with “In a further example of a method of the invention, Patient B is treated with a pea size aliquot of 5% imiquimod every day to the entire face. […] One” for “One”, “elastosis.” for “elastosis. Thus, the methods and composition of the invention can be used to treat and/or to evaluate possible treatment compositions where any one of these diseases or conditions are present or may be present.”

As for `CC(C)Cn1cnc2c(N)nc3ccccc3c21` [imiquimod, 1-isobutyl-1H-imidazo [4,5,-C] quinolin-4-amine], in the series with Patient A skin, the “appearance of clinical wrinkles by visual inspection” value is “decreases”; the general skin appearance result is “generally improved and healthier appearance”; the most noticeable improvement entry is “pigmentation and texture”. In series [1], the “appearance of non-precancerous skin (normal, photodamaged skin)” value is “looks smoother, with more regular pigmentation, and improvement of the fine wrinkles”; the “irritation of non-precancerous skin (normal, photodamaged skin)” value is on record as “does not become irritated”. The “reaction of areas of the skin with precancerous lesions on the nose” value in series [1] (biopsy shows BCC in precancerous regions) was “became very red, eroded and irritated”.
